Source: BigSolDB 2.1

Cc1cccc([N+](=O)[O-])c1N
solubility (mole fraction)
Settings | in 1,4-dioxane | in acetone | in acetonitrile | in cyclohexane | in ethanol | in ethyl acetate | in isopropanol | in methanol | in n-propanol | in toluene
278.15 K | – | 0.113 | 0.0418 | – | 0.0102 | 0.0841 | 0.0086 | 0.00739 | 0.0108 | 0.0237
280.65 K | – | 0.122 | 0.0466 | – | 0.0112 | 0.0924 | 0.00945 | 0.00829 | 0.012 | 0.0267
283.15 K | 0.18 | 0.132 | 0.0529 | 0.00103 | 0.0125 | 0.101 | 0.0105 | 0.00916 | 0.0133 | 0.0301
285.65 K | 0.19 | 0.142 | 0.0589 | 0.00118 | 0.0139 | 0.11 | 0.0119 | 0.0102 | 0.0149 | 0.0336
288.15 K | 0.201 | 0.153 | 0.067 | 0.00136 | 0.0154 | 0.121 | 0.0133 | 0.0113 | 0.0165 | 0.0375
290.65 K | 0.211 | 0.165 | 0.0753 | 0.00158 | 0.017 | 0.131 | 0.0147 | 0.0124 | 0.0183 | 0.0417
293.15 K | 0.223 | 0.177 | 0.0844 | 0.00181 | 0.019 | 0.142 | 0.0163 | 0.014 | 0.0203 | 0.0469
295.65 K | 0.236 | 0.19 | 0.0954 | 0.00211 | 0.021 | 0.155 | 0.0183 | 0.0155 | 0.0225 | 0.0521
298.15 K | 0.249 | 0.203 | 0.106 | 0.00242 | 0.0233 | 0.168 | 0.0202 | 0.0172 | 0.0248 | 0.0581
300.65 K | 0.262 | 0.217 | 0.119 | 0.00279 | 0.0256 | 0.182 | 0.0225 | 0.0192 | 0.0275 | 0.0647
303.15 K | 0.277 | 0.233 | 0.133 | 0.00318 | 0.0284 | 0.196 | 0.0249 | 0.0212 | 0.0305 | 0.0719
305.65 K | 0.291 | 0.249 | 0.148 | 0.00369 | 0.0314 | 0.212 | 0.0277 | 0.0234 | 0.0336 | 0.0804
308.15 K | 0.306 | 0.265 | 0.165 | 0.00424 | 0.0346 | 0.228 | 0.0306 | 0.0261 | 0.0371 | 0.0893
310.65 K | 0.323 | 0.283 | 0.183 | 0.00489 | 0.0381 | 0.246 | 0.0339 | 0.0288 | 0.041 | 0.0993
313.15 K | 0.339 | 0.301 | 0.203 | 0.00562 | 0.042 | 0.265 | 0.0376 | 0.032 | 0.0451 | 0.11
